In patent US10287269B2, “Pyrazolyl pyrimidinone compounds as PDE2 inhibitors” (Merck Sharp & Dohme Corp., priority 2015, dated 2019):
Where two headings read alike, the source gives them in different places.

Biological target: T1, Rhesus PDE2A3 (Macaca mulatta, UniProt B3VTJ2)
T1 construct: made in house; host or cells: AD293 cells, transient transfection, pcDNA3.3-TOPO; lysate supernatant used as enzyme
T1 sequence (B3VTJ2 1-941): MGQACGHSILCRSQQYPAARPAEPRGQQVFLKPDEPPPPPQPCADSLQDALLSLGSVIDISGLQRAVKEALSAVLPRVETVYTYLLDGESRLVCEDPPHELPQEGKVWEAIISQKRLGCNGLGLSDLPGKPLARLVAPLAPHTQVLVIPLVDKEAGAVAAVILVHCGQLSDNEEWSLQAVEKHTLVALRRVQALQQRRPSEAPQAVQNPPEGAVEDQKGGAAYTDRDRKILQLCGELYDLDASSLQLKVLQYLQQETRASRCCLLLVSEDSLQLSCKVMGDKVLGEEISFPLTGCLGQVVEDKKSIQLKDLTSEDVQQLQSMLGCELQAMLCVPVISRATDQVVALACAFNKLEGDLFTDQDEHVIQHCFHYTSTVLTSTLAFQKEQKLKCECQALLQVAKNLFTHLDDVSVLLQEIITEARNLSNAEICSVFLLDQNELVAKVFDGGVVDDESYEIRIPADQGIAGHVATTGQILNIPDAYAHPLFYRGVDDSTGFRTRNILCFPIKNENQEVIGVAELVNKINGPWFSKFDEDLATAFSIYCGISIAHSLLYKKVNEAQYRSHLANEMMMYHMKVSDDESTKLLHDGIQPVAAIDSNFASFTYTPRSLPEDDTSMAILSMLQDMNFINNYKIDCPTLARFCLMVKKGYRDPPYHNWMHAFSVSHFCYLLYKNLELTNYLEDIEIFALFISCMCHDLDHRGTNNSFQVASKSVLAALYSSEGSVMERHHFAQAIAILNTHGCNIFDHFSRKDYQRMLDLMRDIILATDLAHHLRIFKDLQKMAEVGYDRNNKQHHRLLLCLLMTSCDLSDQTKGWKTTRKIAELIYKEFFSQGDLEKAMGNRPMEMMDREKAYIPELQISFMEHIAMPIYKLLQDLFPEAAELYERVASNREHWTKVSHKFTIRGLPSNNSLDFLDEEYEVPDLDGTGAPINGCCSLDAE
Assay: PDE2 fluorescence polarization (IMAP FP) inhibition assay, rhesus enzyme
Assay type: biochemical, rhesus macaque
Method in brief: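 Lysate of AD293 cells transiently expressing rhesus PDE2A3, diluted for ~20% substrate conversion, with 50 nM FAM-cAMP and 1 uM cGMP activator in pH 7.2 Tris/MgCl2 buffer, 60 min at room temperature.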

[1] = Lab A, read-out: Rhesus PDE2 Ki (nM) Lab A
[2] = Lab B, read-out: Rhesus PDE2 Ki (nM) Lab B

Row | SMILES | Ki [1] [nM] | Ki [2] [nM]
1 | COc1cc(Cc2nc(-c3cnn(C(C)c4ccc(C(F)(F)F)cc4F)c3)cc(=O)[nH]2)ccc1F (single isomer, unassigned) [Example 143, (S)- or (R)-2-(4-fluoro-3-methoxybenzyl)-6-(1-(1-(2-fluoro-4-(trifluoromethyl)phenyl)ethyl)-1H-pyrazol-4-yl)pyrimidin-4(3H)-one] | 21.3 | 10.9
2 | Cc1nc(-c2cnn(C(c3ccc(C(F)(F)F)cc3F)C(C)C)c2)cc(=O)[nH]1 (stereo not shown) [Example 34, 6-(1-(1-(2-fluoro-4-(trifluoromethyl)phenyl)-2-methylpropyl)-1H-pyrazol-4-yl)-2-methylpynmidin-4(3H)-one] | 54.6 | 26.9
3 | COc1cccc(Cc2nc(-c3cnn(C(C)c4ccc(C(F)(F)F)cc4F)c3)cc(=O)[nH]2)c1 (single isomer, unassigned) [Example 141, (S)- or (R)-6-(1-(1-(2-fluoro-4-(trifluoromethyl)phenyl)ethyl)-1H-pyrazol-4-yl)-2-(3-methoxybenzyl)pyrimidin-4(3H)-one] | 25.6 | 8.7
4 | Cc1nc(-n2cc(C3(C)OCc4cc(C(F)(F)F)ccc43)cn2)cc(=O)[nH]1 (single isomer, unassigned) [Example 28] |  | 94.5
5 | Cc1nc(-c2cnn(C(C)c3ccc(C(F)(F)F)cc3)c2)cc(=O)[nH]1 (stereo not shown) [Example 126, 2-methyl-6-(1-(1-(4-(trifluoromethyl)phenyl)ethyl)-1H-pyrazol-4-yl)pyrimidin-4(3H)-one] |  | 306
6 | COc1ccc(Cc2nc(-c3cnn(C(C)c4ccc(C(F)(F)F)cc4)c3)cc(=O)[nH]2)cc1OC (single isomer, unassigned) [Example 60, (R)- or (S)-2-(3,4-dimethoxybenzyl)-6-(1-(1-4-(trifluoromethyl)phenyl)ethyl)-1H-pyrazol-4-yl)pyrimidin-4(3H)-one] | 3.6 | 2.4
7 | Cc1nc(-n2cc(C(C)c3ccc(C(F)(F)F)cc3F)cn2)cc(=O)[nH]1 (single isomer, unassigned) [Example 52, (R)- or (S)-6-(4-(1-(2-fluoro-4-(trifluoromethyl)phenyl)ethyl)-1H-pyrazol-1-yl)-2-methylpyrimidin-4(3H)-one] |  | 7.2
8 | COc1cccc(Cc2nc(-c3cnn(C(C)c4ccc(C(F)(F)F)cc4F)c3)cc(=O)[nH]2)c1 (single isomer, unassigned) [Example 140, (R)- or (S)-6-(1-(1-(2-fluoro-4-(trifluoromethyl)phenyl)ethyl)-1H-pyrazol-4-yl)-2-(3-methoxybenzyl)pyrimidin-4(3H)-one] | 3 | 0.8
9 | Cc1ccc(C(C)n2cc(-c3cc(=O)[nH]c(C)n3)cn2)cc1 (stereo not shown) [Example 153, 2-methyl-6-(1-(1-(p-tolyl)ethyl)-1H-pyrazol-4-yl)pyrimidin-4(3H)-one] |  | 825
10 | Cc1nc(-c2ccn(C(C)c3ccc(C(F)(F)F)cc3)n2)cc(=O)[nH]1 (single isomer, unassigned) [Example 78, (S)- or (R)-2-methyl-6-(1-{(1R)-1-[4-(trifluoromethyl)phenyl]ethyl}-1H-pyrazol-3-yl)pyrimidin-4(3H)-one] |  | 318
11 | Cc1nc(-c2cnn(C3(c4ccc(C(F)(F)F)cc4F)CCC3)c2)cc(=O)[nH]1 [Example 37, 6-(1-(1-(2-fluoro-4-(trifluoromethyl)phenyl)cyclobutyl)-1H-pyrazol-4-yl)-2-methylpyrimidin-4(3H)-one] | 13.1 | 
12 | Cc1nc(-c2cnn(C(C)c3ccc(S(F)(F)(F)(F)F)cc3)c2)cc(=O)[nH]1 (single isomer, unassigned) [Example 63, (S)- or (R)-2-methyl-6-(1-(1-(4-(pentafluorosulfanyl)phenyl)ethyl)-1H-pyrazol-4-yl)pyrimidin-4(3H)-one] |  | 99.3
13 | Cc1nc(-n2cc([C@H](CO)c3ccc(C(F)(F)F)cc3F)cn2)cc(=O)[nH]1 (single isomer, unassigned) [Example 20] |  | 18.2
14 | Cc1nc(-n2ccc([C@H](C)c3ccc(C(F)(F)F)cc3)n2)cc(=O)[nH]1 (single isomer, unassigned) [Example 5] |  | 285
